For data set [1], the system named is SMN2 minigene mRNA (SMN2-A minigene) in HEK293H cells. Put plainly: SMN2 minigene mRNA splicing RT-qPCR assay in cultured cells. The format is cell-based, human. The conditions noted are these: Homo sapiens, HEK293-H; concentration increasing full length SMN2 mRNA 1.5-fold relative to vehicle-treated cells; HEK293H cells with SMN2-A minigene, 24 hours, 7-point concentration data; read-out: EC1.5x for production of full length SMN2 mRNA. The procedure, abridged:
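Read-out: minigene-specific full-length (exon 7-included) SMN2 mRNA by one-step multiplex RT-qPCR, normalized to GAPDH and divided by vehicle-treated level. Stable SMN2-A minigene HEK293H cells, 24 h compound exposure, 7 concentrations in duplicate. EC1.5× = concentration raising FL mRNA 1.5-fold.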
A general note: Quantitative PCR measures a nucleic acid by following its amplification.

For data set [2], the system named is Smn protein in SMA patient fibroblast cells (GM03813). Put plainly: Smn protein assay in cultured cells (SMN HTRF). It is filed as cell-based, human. The conditions noted are these: SMA patient fibroblast cells, 48 hours; for EC1.5x for Smn protein expression: 7-point concentration curve, SMN HTRF, concentration producing 1.5 times Smn protein vs DMSO vehicle control; for maximum fold (Fold) increase of Smn protein: 7-point concentration data, fold relative to vehicle control. The procedure, abridged: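 Read-out: HTRF 665/620 nm ratio, blank-subtracted as ΔF, then expressed as fold over DMSO vehicle. Fibroblasts from SMA patients were exposed to compounds for 48 h (7 points, 3.16-fold steps, triplicates). Values are EC1.5× and maximum fold Smn increase.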
On the technique in general: TR-FRET usually uses a lanthanide donor and a delayed reading to cut background.

We go through 13 compounds from US11753407B2, “Compounds for treating spinal muscular atrophy” (PTC Therapeutics, Inc., priority 2012, dated 2023).

The melting point is the temperature of the solid-liquid transition. `CCCN1CC=C(c2ccc3nc(-c4cc(F)c5nc(C)oc5c4)cc(=O)n3c2)CC1` [Compound 319, 2-(4-fluoro-2-methyl-1,3-benzoxazol-6-yl)-7-(1-propyl-1,2,3,6-tetrahydropyridin-4-yl)-4H-pyrido[1,2-a]pyrimidin-4-one] returned a melting point of 159 to 162 °C. Besides, in data set [1], the EC (1.5-fold increase) was less than 0.1 µM. For the same compound, in data set [2], the “EC1.5x for Smn protein expression” value is given as “**** (an EC1.5x≤0.3 μM is indicated by four stars (****))”; the “maximum fold (Fold) increase of Smn protein” value (“maximum fold (Fold) increase” for short) was “**** (a fold increase between >1.5 and ≤1.65 is indicated by four stars (****))”.
In the case of `CCN(CC)C1CCN(c2ccc3nc(-c4cc5c(C)nc(C)cn5n4)cc(=O)n3c2)CC1` [Compound 451, 7-[4-(diethylamino)piperidin-1-yl]-2-(4,6-dimethylpyrazolo[1,5-a]pyrazin-2-yl)-4H-pyrido[1,2-a]pyrimidin-4-one], the melting point is 232 to 235 °C. Also, the EC (1.5-fold increase) in data set [1] is less than 0.1 µM. Besides, in data set [2], the “EC1.5x for Smn protein expression” value was “*** (an EC1.5× between >0.3 μM and ≤1 μM is indicated by three stars (***))”; the “maximum fold (Fold) increase” value is given as “***** (a fold increase >1.65 is indicated by five stars (*****))”.
`COc1ccc(-c2cc(=O)n3cc(N[C@@H]4CCN(C)C4)ccc3n2)cc1F` [Compound 225, 2-(3-fluoro-4-methoxyphenyl)-7-{[(3R)-1-methylpyrrolidin-3-yl]amino}-4H-pyrido[1,2-a]pyrimidin-4-one] gave a melting point of 197 to 202 °C. The EC (1.5-fold increase) in data set [1] lay in the range of 1 to 3 µM. Also, in data set [2], the “maximum fold (Fold) increase” value is “* (A maximum fold increase of ≤1.2 is indicated by one star (*))”.
Consider `COc1ccc(-c2cc(=O)n3cc(N4C[C@H]5CN(CCO)C[C@H]5C4)ccc3n2)cc1F` [Compound 279, 2-(3-fluoro-4-methoxyphenyl)-7-[(3aR,6aS)-5-(2-hydroxyethyl)hexahydropyrrolo[3,4-c]pyrrol-2(1H)-yl]-4H-pyrido[1,2-a]pyrimidin-4-one], for which the melting point was 180 to 186 °C. In addition, the EC (1.5-fold increase) in data set [1] is 0.1 to 0.3 µM. Besides, in data set [2], the “maximum fold (Fold) increase” value was “** (a fold increase between >1.2 and ≤1.35 is indicated by two stars (**))”.
In turn, `Cc1cn2cc(-c3cc(=O)n4cc(C5=CCN(C(C)C)CC5)ccc4n3)ccc2n1` [Compound 565, 2-(2-methylimidazo[1,2-a]pyridin-6-yl)-7-[1-(propan-2-yl)-1,2,3,6-tetrahydropyridin-4-yl]-4H-pyrido[1,2-a]pyrimidin-4-one] registered a melting point of 230 to 232 °C. Further, the EC (1.5-fold increase) in data set [1] is less than 0.1 µM. Moreover, in data set [2], the “EC1.5x for Smn protein expression” value was “*** (an EC1.5× between >0.3 μM and ≤1 μM is indicated by three stars (***))”; the “maximum fold (Fold) increase” value was “**** (a fold increase between >1.5 and ≤1.65 is indicated by four stars (****))”.
Regarding `Cc1cn2cc(-c3cc(=O)n4cc(N5CCNCC5)ccc4n3)cc(C)c2n1` [Compound 141, 2-(2,8-dimethylimidazo[1,2-a]pyridin-6-yl)-7-(piperazin-1-yl)-4H-pyrido[1,2-a]pyrimidin-4-one], the melting point fell in the range of 270 to 274 °C. The EC (1.5-fold increase) in data set [1] was less than 0.1 µM. In data set [2], the “EC1.5x for Smn protein expression” value was “**** (an EC1.5x≤0.3 μM is indicated by four stars (****))” and the “maximum fold (Fold) increase” value is “***** (a fold increase >1.65 is indicated by five stars (*****))”.
`CCN1CCN(c2ccc3nc(-c4ccc5nc(C)[nH]c5c4)cc(=O)n3c2)CC1` [Compound 690, 7-(4-ethylpiperazin-1-yl)-2-(2-methyl-1H-benzimidazol-6-yl)-4H-pyrido[1,2-a]pyrimidin-4-one]: the melting point lay within 283 to 285 °C. For the same compound, the EC (1.5-fold increase) in data set [1] was less than 0.1 µM. In addition, in data set [2], the “EC1.5x for Smn protein expression” value is “*** (an EC1.5× between >0.3 μM and ≤1 μM is indicated by three stars (***))”; the “maximum fold (Fold) increase” value is “**** (a fold increase between >1.5 and ≤1.65 is indicated by four stars (****))”.
`Cc1cn2cc(-c3cc(=O)n4cc(N5CCN[C@@H](C)C5)ccc4n3)cc(C(F)(F)F)c2n1` [Compound 735, 7-[(3S)-3-methylpiperazin-1-yl]-2-[2-methyl-8-(trifluoromethyl)imidazo[1,2-a]pyridin-6-yl]-4H-pyrido[1,2-a]pyrimidin-4-one]: the melting point is more than 320 °C. In addition, the EC (1.5-fold increase) in data set [1] was less than 0.1 µM. In data set [2], the “EC1.5x for Smn protein expression” value is on record as “**** (an EC1.5x≤0.3 μM is indicated by four stars (****))”; the “maximum fold (Fold) increase” value was “**** (a fold increase between >1.5 and ≤1.65 is indicated by four stars (****))”.
`Cc1nc2ccc(-c3cc(=O)n4cc(N5CCCNCC5)ccc4n3)cc2s1` [Compound 253, 7-(1,4-diazepan-1-yl)-2-(2-methyl-1,3-benzothiazol-6-yl)-4H-pyrido[1,2-a]pyrimidin-4-one] had a melting point of 205 to 207 °C. Further, in data set [1], the EC (1.5-fold increase) was in the range of 1 to 3 µM. Further, in data set [2], the “maximum fold (Fold) increase” value is “* (A maximum fold increase of ≤1.2 is indicated by one star (*))”.
`Cc1nc2ccc(-c3cc(=O)n4cc(N5CC[C@H](N(C)C)C5)ccc4n3)cc2o1` [Compound 241, 7-[(3S)-3-(dimethylamino)pyrrolidin-1-yl]-2-(2-methyl-1,3-benzoxazol-6-yl)-4H-pyrido[1,2-a]pyrimidin-4-one]: the melting point was 189 to 193 °C. The EC (1.5-fold increase) in data set [1] was in the range of 0.1 to 0.3 µM. In data set [2], the “EC1.5x for Smn protein expression” value was “**** (an EC1.5x≤0.3 μM is indicated by four stars (****))” and the “maximum fold (Fold) increase” value is given as “***** (a fold increase >1.65 is indicated by five stars (*****))”.
Regarding `CCN1CC=C(c2ccc3nc(-c4ccc5nc(C)oc5c4)cc(=O)n3n2)CC1` [Compound 493, 7-(1-ethyl-1,2,3,6-tetrahydropyridin-4-yl)-2-(2-methyl-1,3-benzoxazol-6-yl)-4H-pyrimido[1,2-b]pyridazin-4-one], the melting point fell in the range of 205 to 207 °C. The EC (1.5-fold increase) in data set [1] was less than 0.1 µM. In addition, in data set [2], the “EC1.5x for Smn protein expression” value was “*** (an EC1.5× between >0.3 μM and ≤1 μM is indicated by three stars (***))”; the “maximum fold (Fold) increase” value is “**** (a fold increase between >1.5 and ≤1.65 is indicated by four stars (****))”.
In turn, `CCCNC1CCN(c2cc(C)c3nc(-c4ccc(OC)c(OC)c4)cc(=O)n3c2)CC1` [Cpd 407, 2-(3,4-dimethoxyphenyl)-9-methyl-7-[4-(propylamino)piperidin-1-yl]-4H-pyrido[1,2-a]pyrimidin-4-one] had a melting point of 178 to 184 °C. Besides, the EC (1.5-fold increase) in data set [1] was less than 0.1 µM. Moreover, the “maximum fold (Fold) increase” value in data set [2] was “*** (a fold increase between >1.35 and ≤1.5 is indicated by three stars (***))”.
For the compound `COc1ccc(-c2cc(=O)n3cc(N4C[C@H]5CN(C)C[C@H]5C4)cc(C)c3n2)cc1OC` [Compound 260, 2-(3,4-dimethoxyphenyl)-9-methyl-7-[(3aR,6aS)-5-methylhexahydropyrrolo[3,4-c]pyrrol-2(1H)-yl]-4H-pyrido[1,2-a]pyrimidin-4-one], the melting point fell in the range of 212 to 218 °C. In data set [1], the EC (1.5-fold increase) is 0.1 to 0.3 µM. In addition, in data set [2], the “EC1.5x for Smn protein expression” value is “** (an EC1.5× between >1 μM and ≤3 μM is indicated by two stars (**))”; the “maximum fold (Fold) increase” value is “*** (a fold increase between >1.35 and ≤1.5 is indicated by three stars (***))”.
